Columns and labels:
testosterone/E2 ratio = test: Example 3 study in hypogonadal men: testosterone/E2 ratio (ITT); type: in vivo, human; settings: for Testosterone/E2 Ratio % Change from Baseline to Week 2, Max / Testosterone/E2 Ratio % Change from Baseline to Week 2, Mean ± SD / Testosterone/E2 Ratio % Change from Baseline to Week 2, Median / Testosterone/E2 Ratio % Change from Baseline to Week 2, Min: Week 2, (Week minus Baseline) divided by Baseline; for Testosterone/E2 Ratio % Change from Baseline to Week 2, Max / Testosterone/E2 Ratio % Change from Baseline to Week 2, Mean ± SD / Testosterone/E2 Ratio % Change from Baseline to Week 2, Median / Testosterone/E2 Ratio % Change from Baseline to Week 2, Min / Testosterone/E2 Ratio % Change from Baseline to Week 4, Max / Testosterone/E2 Ratio % Change from Baseline to Week 4, Mean ± SD / Testosterone/E2 Ratio % Change from Baseline to Week 4, Median / Testosterone/E2 Ratio % Change from Baseline to Week 4, Min / Testosterone/E2 Ratio % Change from Baseline to Week 6, Max / Testosterone/E2 Ratio % Change from Baseline to Week 6, Mean ± SD / Testosterone/E2 Ratio % Change from Baseline to Week 6, Median / Testosterone/E2 Ratio % Change from Baseline to Week 6, Min: LOCF; for Testosterone/E2 Ratio % Change from Baseline to Week 4, Max / Testosterone/E2 Ratio % Change from Baseline to Week 4, Mean ± SD / Testosterone/E2 Ratio % Change from Baseline to Week 4, Median / Testosterone/E2 Ratio % Change from Baseline to Week 4, Min: Week 4, (Week minus Baseline) divided by Baseline; for Testosterone/E2 Ratio % Change from Baseline to Week 6, Max / Testosterone/E2 Ratio % Change from Baseline to Week 6, Mean ± SD / Testosterone/E2 Ratio % Change from Baseline to Week 6, Median / Testosterone/E2 Ratio % Change from Baseline to Week 6, Min: Week 6, (Week minus Baseline) divided by Baseline
Method: (§1) A randomized, double-blind, placebo controlled, parallel-group study of once-daily doses of fispemifene (100, 200, and 300 mg/day) given for 4 weeks was conducted in a population of hypogonadal men. Subjects were required to meet all of the following inclusion criteria at screening and prior to randomization to be eligible for the study:
(§2) There were 77 subjects total. The number of subjects randomized to the 100 mg fispemifene, 200 mg fispemifene, 300 mg fispemifene, and placebo arms were 21, 21, 19, and 16, respectively.
(§3) Subjects were randomly assigned to one of four treatment groups in a 1:1:1:1 ratio: • Treatment A (100 mg): fispemifene 100 mg+placebo+placebo; • Treatment B (200 mg): fispemifene 100 mg+fispemifene 100 mg+placebo; • Treatment C (300 mg): fispemifene 100 mg+fispemifene 100 mg+fispemifene 100 mg; and • Treatment D (Placebo): placebo+placebo+placebo.
(§4) Subjects took one dose (three capsules) of study medication once a day at home for 4 weeks. Capsules were to be taken in the morning immediately after breakfast, with the exception of the morning of the Week 4 visit. Capsules were not to be taken on the morning of the Week 4 visit because trough plasma levels of fispemifene were determined by a blood sample taken at this visit. Each subject was randomly assigned to treatment with one of the 3 different dose regimens of fispemifene or placebo vehicle. Each subject received a 4 week supply of study drug.
(§5) Blood samples were taken from the subjects within 1 week prior to dosing with study drug to establish baseline values; after 2 and 4 weeks of randomization; and 2 weeks after the last dose of study drug. Serum was prepared from those samples and used to determine the mean % change from baseline in total testosterone, free testosterone, SHBG (sex hormone-binding globulin), DHT (dihydrotestosterone), E2 (estradiol), LH (luteinizing hormone), FSH (follicle stimulating hormone), and inhibin B.
3. Percent change from baseline in SHBG, DHT, E2, LH, FSH, inhibin B, and testosterone/E2 ratio at Weeks 2, 4, and 6.

total testosterone = test: Example 3 study in hypogonadal men: morning serum total testosterone (ITT); type: in vivo, human
Method: as §1, §2, §3, §4, §5
The primary efficacy endpoint was defined as percent change from baseline in morning total testosterone levels at Week 4. The intent-to-treat (“ITT”) population was the primary population for analysis. The secondary efficacy endpoints included:
2. Percent change from baseline in total testosterone levels at Weeks 2 and 6; and […]

[1] = 100 mg/day, Week 6 (2 weeks after discontinuation)
[2] = 100 mg/day, to Week 6 (2 weeks after discontinuation)
[3] = 200 mg/day, Week 6 (2 weeks after discontinuation)
[4] = 200 mg/day, to Week 6 (2 weeks after discontinuation)
[5] = 300 mg/day, Week 6 (2 weeks after discontinuation)
[6] = 300 mg/day, to Week 6 (2 weeks after discontinuation)

## OCCOCCOc1ccc(/C(=C(/CCCl)c2ccccc2)c2ccccc2)cc1 [Fispemifene, (Z)-2-{2-[4-(4-Chloro-1,2-diphenylbut-1-enyl)phenoxy]ethoxy}ethanol]
testosterone/E2 ratio; 100 mg
  Testosterone/E2 Ratio % Change from Baseline to Week 2, Max: 1.21
  Testosterone/E2 Ratio % Change from Baseline to Week 2, Mean ± SD: 0.21 ± 0.457
  Testosterone/E2 Ratio % Change from Baseline to Week 2, Median: 0.18
  Testosterone/E2 Ratio % Change from Baseline to Week 2, Min: −0.39
  Testosterone/E2 Ratio % Change from Baseline to Week 4, Max: 1.57
  Testosterone/E2 Ratio % Change from Baseline to Week 4, Mean ± SD: 0.22 ± 0.482
  Testosterone/E2 Ratio % Change from Baseline to Week 4, Median: 0.13
  Testosterone/E2 Ratio % Change from Baseline to Week 4, Min: −0.29
  Testosterone/E2 Ratio % Change from Baseline to Week 6, Max: 0.411
  Testosterone/E2 Ratio % Change from Baseline to Week 6, Mean ± SD: −0.002 ± 0.1993
  Testosterone/E2 Ratio % Change from Baseline to Week 6, Median: 0.029
  Testosterone/E2 Ratio % Change from Baseline to Week 6, Min: −0.337
  Testosterone/E2 Ratio Actual Value at Baseline (Visit 2), Max: 27.0
  Testosterone/E2 Ratio Actual Value at Baseline (Visit 2), Mean ± SD: 15.2 ± 6.39
  Testosterone/E2 Ratio Actual Value at Baseline (Visit 2), Median: 14.7
  Testosterone/E2 Ratio Actual Value at Baseline (Visit 2), Min: 5.2
testosterone/E2 ratio; 200 mg
  Testosterone/E2 Ratio % Change from Baseline to Week 2, Max: 0.93
  Testosterone/E2 Ratio % Change from Baseline to Week 2, Mean ± SD: 0.25 ± 0.418
  Testosterone/E2 Ratio % Change from Baseline to Week 2, Median: 0.19
  Testosterone/E2 Ratio % Change from Baseline to Week 2, Min: −0.29
  Testosterone/E2 Ratio % Change from Baseline to Week 4, Max: 1.08
  Testosterone/E2 Ratio % Change from Baseline to Week 4, Mean ± SD: 0.18 ± 0.387
  Testosterone/E2 Ratio % Change from Baseline to Week 4, Median: 0.17
  Testosterone/E2 Ratio % Change from Baseline to Week 4, Min: −0.34
  Testosterone/E2 Ratio % Change from Baseline to Week 6, Max: 0.937
  Testosterone/E2 Ratio % Change from Baseline to Week 6, Mean ± SD: 0.019 ± 0.3760
  Testosterone/E2 Ratio % Change from Baseline to Week 6, Median: −0.030
  Testosterone/E2 Ratio % Change from Baseline to Week 6, Min: −0.517
  Testosterone/E2 Ratio Actual Value at Baseline (Visit 2), Max: 30.2
  Testosterone/E2 Ratio Actual Value at Baseline (Visit 2), Mean ± SD: 14.2 ± 5.73
  Testosterone/E2 Ratio Actual Value at Baseline (Visit 2), Median: 14.9
  Testosterone/E2 Ratio Actual Value at Baseline (Visit 2), Min: 6.3
testosterone/E2 ratio; 300 mg
  Testosterone/E2 Ratio % Change from Baseline to Week 2, Max: 1.43
  Testosterone/E2 Ratio % Change from Baseline to Week 2, Mean ± SD: 0.21 ± 0.372
  Testosterone/E2 Ratio % Change from Baseline to Week 2, Median: 0.15
  Testosterone/E2 Ratio % Change from Baseline to Week 2, Min: −0.24
  Testosterone/E2 Ratio % Change from Baseline to Week 4, Max: 1.12
  Testosterone/E2 Ratio % Change from Baseline to Week 4, Mean ± SD: 0.33 ± 0.428
  Testosterone/E2 Ratio % Change from Baseline to Week 4, Median: 0.36
  Testosterone/E2 Ratio % Change from Baseline to Week 4, Min: −0.53
  Testosterone/E2 Ratio % Change from Baseline to Week 6, Max: 0.65
  Testosterone/E2 Ratio % Change from Baseline to Week 6, Mean ± SD: 0.12 ± 0.250
  Testosterone/E2 Ratio % Change from Baseline to Week 6, Median: 0.11
  Testosterone/E2 Ratio % Change from Baseline to Week 6, Min: −0.29
  Testosterone/E2 Ratio Actual Value at Baseline (Visit 2), Max: 23.1
  Testosterone/E2 Ratio Actual Value at Baseline (Visit 2), Mean ± SD: 11.5 ± 4.87
  Testosterone/E2 Ratio Actual Value at Baseline (Visit 2), Median: 10.6
  Testosterone/E2 Ratio Actual Value at Baseline (Visit 2), Min: 1.7
Total testosterone; 100 mg/day, Baseline (Visit 2)
  Total Testosterone, Max: 347.0 ng/dL
  Total Testosterone, Mean ± SD: 248.6 ± 68.90 ng/dL
  Total Testosterone, Median: 266.0 ng/dL
  Total Testosterone, Min: 101.0 ng/dL
Total testosterone; 100 mg/day, Week 2
  Total Testosterone, Max: 585.0 ng/dL
  Total Testosterone, Mean ± SD: 369.9 ± 88.23 ng/dL
  Total Testosterone, Median: 350.0 ng/dL
  Total Testosterone, Min: 235.0 ng/dL
Total testosterone; 100 mg/day, Week 4
  Total Testosterone, Max: 535.0 ng/dL
  Total Testosterone, Mean ± SD: 371.6 ± 83.36 ng/dL
  Total Testosterone, Median: 353.0 ng/dL
  Total Testosterone, Min: 246.0 ng/dL
Total testosterone; [1]
  Total Testosterone, Max: 414.0 ng/dL
  Total Testosterone, Mean ± SD: 271.9 ± 69.21 ng/dL
  Total Testosterone, Median: 265.0 ng/dL
  Total Testosterone, Min: 121.0 ng/dL
Total testosterone; 100 mg/day, to Week 2
  Total Testosterone, % Change from Baseline, Max: 133%
  Total Testosterone, % Change from Baseline, Median: 45%
  Total Testosterone, % Change from Baseline, Min: 14%
Total testosterone; 100 mg/day, to Week 4
  Total Testosterone, % Change from Baseline, Max: 198%
  Total Testosterone, % Change from Baseline, Median: 35%
  Total Testosterone, % Change from Baseline, Min: 7%
Total testosterone; [2]
  Total Testosterone, % Change from Baseline, Max: 119%
  Total Testosterone, % Change from Baseline, Median: 11%
Total testosterone; 200 mg/day, Baseline (Visit 2)
  Total Testosterone, Max: 334.0 ng/dL
  Total Testosterone, Mean ± SD: 249.1 ± 60.90 ng/dL
  Total Testosterone, Median: 253.0 ng/dL
  Total Testosterone, Min: 133.0 ng/dL
Total testosterone; 200 mg/day, Week 2
  Total Testosterone, Max: 497.0 ng/dL
  Total Testosterone, Mean ± SD: 370.0 ± 72.44 ng/dL
  Total Testosterone, Median: 354.0 ng/dL
  Total Testosterone, Min: 238.0 ng/dL
Total testosterone; 200 mg/day, Week 4
  Total Testosterone, Max: 626.0 ng/dL
  Total Testosterone, Mean ± SD: 387.3 ± 107.39 ng/dL
  Total Testosterone, Median: 372.0 ng/dL
  Total Testosterone, Min: 241.0 ng/dL
Total testosterone; [3]
  Total Testosterone, Max: 539.0 ng/dL
  Total Testosterone, Mean ± SD: 276.2 ± 97.28 ng/dL
  Total Testosterone, Median: 240.0 ng/dL
  Total Testosterone, Min: 162.0 ng/dL
Total testosterone; 200 mg/day, to Week 2
  Total Testosterone, % Change from Baseline, Max: 142%
  Total Testosterone, % Change from Baseline, Median: 48%
  Total Testosterone, % Change from Baseline, Min: 17%
Total testosterone; 200 mg/day, to Week 4
  Total Testosterone, % Change from Baseline, Median: 60%
Total testosterone; [4]
  Total Testosterone, % Change from Baseline, Max: 79%
  Total Testosterone, % Change from Baseline, Median: 11%
Total testosterone; 300 mg/day, Baseline (Visit 2)
  Total Testosterone, Max: 348.0 ng/dL
  Total Testosterone, Mean ± SD: 234.2 ± 77.69 ng/dL
  Total Testosterone, Median: 246.0 ng/dL
  Total Testosterone, Min: 17.0 ng/dL
Total testosterone; 300 mg/day, Week 2
  Total Testosterone, Max: 526.0 ng/dL
  Total Testosterone, Mean ± SD: 379.2 ± 122.04 ng/dL
  Total Testosterone, Median: 427.0 ng/dL
  Total Testosterone, Min: 13.0 ng/dL
Total testosterone; 300 mg/day, Week 4
  Total Testosterone, Max: 643.0 ng/dL
  Total Testosterone, Mean ± SD: 430.7 ± 163.39 ng/dL
  Total Testosterone, Median: 479.0 ng/dL
  Total Testosterone, Min: 8.0 ng/dL
Total testosterone; [5]
  Total Testosterone, Max: 423.0 ng/dL
  Total Testosterone, Mean ± SD: 279.2 ± 102.84 ng/dL
  Total Testosterone, Median: 293.0 ng/dL
  Total Testosterone, Min: 16.0 ng/dL
Total testosterone; 300 mg/day, to Week 2
  Total Testosterone, % Change from Baseline, Max: 101%
  Total Testosterone, % Change from Baseline, Median: 65%
Total testosterone; 300 mg/day, to Week 4
  Total Testosterone, % Change from Baseline, Max: 181%
  Total Testosterone, % Change from Baseline, Median: 80%
Total testosterone; [6]
  Total Testosterone, % Change from Baseline, Max: 77%
  Total Testosterone, % Change from Baseline, Median: 14%
Total testosterone; hypogonadal men, within 14 days from the start of treatment, maintained during treatment
  effect on serum total testosterone concentration: clinically and statistically significant and dose dependent increase to, but not beyond, the normal range

— patent publication US10500166B2, “Methods for the treatment of erectile dysfunction using fispemifene” (QUATRX PHARMACEUTICALS, priority 2007, dated 2019)
